Results on 5 molecules are retold here after US4093648A, “Therapeutically active benzoic acid derivatives and a process for preparing them” (Recordati S.A. Chemical and Pharmaceutical Company, priority 1975, dated 1978).

For data set [1], the system named is cutaneous passive anaphylaxis. Nature of the data set: cutaneous passive anaphylaxis on the rat (antianaphylactic activity vs. sodium chromoglycate standard). The data set is classed as in vivo. The following applies: for Compound activity / Standard activity: ratio to chromoglycate (standard), cutaneous passive anaphylaxis, rat. The source says:
The compounds of formula I and their pharmacologically compatible salts show antianaphylactic activity (which is rather remarkable for some of them) that may be successfully employed to prepare pharmaceutical formulations for human use against the allergic asthma and alimentary allergies. In order to evaluate the antianaphylactic activity, we have performed some comparison tests with sodium chromoglycate that is, at the present time, the most known and the most used antiallergic agent.
(§1) The evaluation of biological data has been carried out by the most accepted test of the cutaneous passive anaphylaxis on the rat. We have followed the method described by J. Mota on Life Science 12,917 (1963) that was appropriately modified. The LD50 determination was carried out with the common method, by administering intraperitoneally the compound to rats. The chromoglycate was used as a standard. In the first column, are listed the LD50 values (mg/Kg), in the second the ratios [formula] in the last column the ratios [formula]

Data set [2] is described as follows: LD50 determination, intraperitoneal, rats. As to conditions: rat, in vivo, ip. The procedure: as §1
Data set [3] has as its system cutaneous passive anaphylaxis. As to conditions: qualitative statement, no data; cited from earlier work.

Take `CCOc1ccc(NC(=O)c2cccc(C(=O)CC)c2O)cc1` [Example 2, 2-Hydroxy-3-propionyl (4-ethoxyphenyl)benzamide]: the “Compound activity / Standard activity” value in data set [1] is 1.20. Also, the LD50 in data set [2] (intraperitoneally to rats) was found to be 3000 mg/kg.
On to `CCC(=O)c1cccc(C(=O)Nc2ccccc2Cl)c1O` [Example 3, 2-Hydroxy-3-propionyl (o-chlorophenyl) benzamide], for which, in data set [1], the “Compound activity / Standard activity” value is given as 1.19. Besides, the LD50 in data set [2] (intraperitoneally to rats) is 3000 mg/kg.
`CCC(=O)c1cccc(C(=O)Nc2cccc(Cl)c2)c1O` [Example 4, 2-Hydroxy-3-propionyl (m-chlorophenyl) benzamide]: in data set [1], the “Compound activity / Standard activity” value amounted to 1.12. The same molecule gave an LD50 in data set [2] (intraperitoneally to rats) of 2700 mg/kg.
`CCC(=O)c1cccc(C(=O)O)c1OCCN(CC)CC` [Example 7, 2(β-diethylamino)ethoxy-3-propionylbenzoic Acid]: the antianaphylactic activity result in data set [1] (qualitative statement) is recorded as “most active product of this series”. For the same molecule, in data set [1], the “Compound activity / Standard activity” value turned out to be 1.22. The same molecule registered an LD50 in data set [2] of 3000 mg/kg.
In the case of `O=C(O)c1cc(=O)c2c(OCC(O)COc3cccc4oc(C(=O)O)cc(=O)c34)cccc2o1` [chromoglycate, sodium chromoglycate], the “activity when administered per os (chromoglycate)” value in data set [3] is “inactive”.

In general, LD50 refers to the dose expected to kill half of the subjects tested. Lower therefore signals greater toxicity.
